Assay results reported in ChEMBL document CHEMBL1201861, “Genomics of Drug Sensitity in Cancer screening data, Wellcome Trust Sanger Institute”.

Assays:
K052 = assay: cells; type: functional, cell-based, Homo sapiens
Description: SANGER: Inhibition of human K052 cell growth in a cell viability assay.

NCI-H719 = assay: cells; type: functional, cell-based, Homo sapiens
Description: SANGER: Inhibition of human NCI-H719 cell growth in a cell viability assay.

MOLT-13 = assay: cells; type: functional, cell-based, Homo sapiens; conditions: Homo sapiens, MOLT-13
Description: SANGER: Inhibition of human MOLT-13 cell growth in a cell viability assay.

IM-9 = assay: SANGER: Inhibition of human IM-9 cell growth in a cell viability assay.; type: functional, cell-based
TUR = assay: cells; type: functional, cell-based, Homo sapiens
Description: SANGER: Inhibition of human TUR cell growth in a cell viability assay.

RPMI-6666 = assay: cells; type: functional, cell-based, Homo sapiens
Description: SANGER: Inhibition of human RPMI-6666 cell growth in a cell viability assay.

NCI-H345 = assay: cells; type: functional, cell-based, Homo sapiens
Description: SANGER: Inhibition of human NCI-H345 cell growth in a cell viability assay.

CESS = assay: SANGER: Inhibition of human CESS cell growth in a cell viability assay.; type: functional, cell-based
NCI-H889 = assay: cells; type: functional, cell-based, Homo sapiens
Description: SANGER: Inhibition of human NCI-H889 cell growth in a cell viability assay.

SNU-C1 = assay: cells; type: functional, cell-based, Homo sapiens
Description: SANGER: Inhibition of human SNU-C1 cell growth in a cell viability assay.

NCI-H2141 = assay: cells; type: functional, cell-based, Homo sapiens
Description: SANGER: Inhibition of human NCI-H2141 cell growth in a cell viability assay.

SNU-16 = assay: cells; type: functional, cell-based, Homo sapiens
Description: SANGER: Inhibition of human NCI-SNU-16 cell growth in a cell viability assay.

NB7 = assay: cells; type: functional, cell-based, Homo sapiens; conditions: Homo sapiens, NB7
Description: SANGER: Inhibition of human NB7 cell growth in a cell viability assay.

NCI-H1703 = assay: cells; type: functional, cell-based, Homo sapiens
Description: SANGER: Inhibition of human NCI-H1703 cell growth in a cell viability assay.

SW948 = assay: cells; type: functional, cell-based, Homo sapiens
Description: SANGER: Inhibition of human SW948 cell growth in a cell viability assay.

OE19 = assay: cells; type: functional, cell-based, Homo sapiens
Description: SANGER: Inhibition of human OE19 cell growth in a cell viability assay.

MDA-MB-453 = assay: cells; type: functional, cell-based, Homo sapiens
Description: SANGER: Inhibition of human MDA-MB-453 cell growth in a cell viability assay.

CAL-54 = assay: cells; type: functional, cell-based, Homo sapiens
Description: SANGER: Inhibition of human CAL-54 cell growth in a cell viability assay.

SW1573 = assay: cells; type: functional, cell-based, Homo sapiens
Description: SANGER: Inhibition of human SW1573 cell growth in a cell viability assay.

BEN = assay: cells; type: functional, cell-based, Homo sapiens
Description: SANGER: Inhibition of human BEN cell growth in a cell viability assay.

HPAF-II = assay: cells; type: functional, cell-based, Homo sapiens
Description: SANGER: Inhibition of human HPAF-II cell growth in a cell viability assay.

HuCCT-1 = assay: cells; type: functional, cell-based, Homo sapiens, HuCCT1
Description: SANGER: Inhibition of human HuCCT1 cell growth in a cell viability assay.

HCC70 = assay: cells; type: functional, cell-based, Homo sapiens
Description: SANGER: Inhibition of human HCC70 cell growth in a cell viability assay.

HCC1419 = assay: cells; type: functional, cell-based, Homo sapiens
Description: SANGER: Inhibition of human HCC1419 cell growth in a cell viability assay.

C-33-A = assay: cells; type: functional, cell-based, Homo sapiens
Description: SANGER: Inhibition of human C-33-A cell growth in a cell viability assay.

J82 = assay: cells; type: functional, cell-based, Homo sapiens
Description: SANGER: Inhibition of human J82 cell growth in a cell viability assay.

ASPC1 = assay: cells; type: functional, cell-based, Homo sapiens
Description: SANGER: Inhibition of human AsPC-1 cell growth in a cell viability assay.

KNS-62 = assay: cells; type: functional, cell-based, Homo sapiens; conditions: Homo sapiens, KNS-62
Description: SANGER: Inhibition of human KNS-62 cell growth in a cell viability assay.

RD = assay: cells; type: functional, cell-based, Homo sapiens
Description: SANGER: Inhibition of human RD cell growth in a cell viability assay.

DU-145 = assay: cells; type: functional, cell-based, Homo sapiens
Description: SANGER: Inhibition of human DU-145 cell growth in a cell viability assay.

LoVo = assay: cells; type: functional, cell-based, Homo sapiens
Description: SANGER: Inhibition of human LoVo cell growth in a cell viability assay.

SW 1116 = assay: cells; type: functional, cell-based, Homo sapiens; conditions: Homo sapiens, SW 1116
Description: SANGER: Inhibition of human SW1116 cell growth in a cell viability assay.

DMS-273 = assay: cells; type: functional, cell-based, Homo sapiens
Description: SANGER: Inhibition of human DMS-273 cell growth in a cell viability assay.

CAL-27 = assay: cells; type: functional, cell-based, Homo sapiens
Description: SANGER: Inhibition of human CAL-27 cell growth in a cell viability assay.

SCC-4 = assay: cells; type: functional, cell-based, Homo sapiens
Description: SANGER: Inhibition of human SCC-4 cell growth in a cell viability assay.

CHL-1 = assay: cells; type: functional, cell-based, Homo sapiens
Description: SANGER: Inhibition of human CHL-1 cell growth in a cell viability assay.

NCI-H810 = assay: cells; type: functional, cell-based, Homo sapiens
Description: SANGER: Inhibition of human NCI-H810 cell growth in a cell viability assay.

FTC-133 = assay: cells; type: functional, cell-based, Homo sapiens
23132-87 = assay: cells; type: functional, cell-based, Homo sapiens
Description: SANGER: Inhibition of human 23132-87 cell growth in a cell viability assay.

NCI-H28 = assay: cells; type: functional, cell-based, Homo sapiens
Description: SANGER: Inhibition of human NCI-H28 cell growth in a cell viability assay.

MC-IXC = assay: cells; type: functional, cell-based, Homo sapiens
Description: SANGER: Inhibition of human MC-IXC cell growth in a cell viability assay.

SK-MEL-28 = assay: cells; type: functional, cell-based, Homo sapiens; conditions: sk-mel-28
Description: SANGER: Inhibition of human SK-MEL-28 cell growth in a cell viability assay.

NCI-H2405 = assay: cells; type: functional, cell-based, Homo sapiens; conditions: nci-h2405
Description: SANGER: Inhibition of human NCI-H2405 cell growth in a cell viability assay.

KP-N-YN = assay: cells; type: functional, cell-based, Homo sapiens; conditions: kp-n-yn
Description: SANGER: Inhibition of human KP-N-YN cell growth in a cell viability assay.

D-542MG = assay: cells; type: functional, cell-based, Homo sapiens; conditions: d-542mg
Description: SANGER: Inhibition of human D-542MG cell growth in a cell viability assay.

NCI-H650 = assay: cells; type: functional, cell-based, Homo sapiens; conditions: nci-h650
Description: SANGER: Inhibition of human NCI-H650 cell growth in a cell viability assay.

DK-MG = assay: cells; type: functional, cell-based, Homo sapiens; conditions: dk-mg
Description: SANGER: Inhibition of human DK-MG cell growth in a cell viability assay.

A-375 = assay: cells; type: functional, cell-based, Homo sapiens; conditions: a-375
Description: SANGER: Inhibition of human A375 cell growth in a cell viability assay.

## COc1cc2ncn(-c3cc(OCc4ccccc4C(F)(F)F)c(C(N)=O)s3)c2cc1OC [GW843682X]
K052; Homo sapiens, K052
  IC50: 0.0354 µM
NCI-H719; Homo sapiens, NCI-H719
  IC50: > 0.256 µM
MOLT-13
  IC50: 0.0121 µM
IM-9; Homo sapiens, IM-9
  IC50: > 0.256 µM
TUR; Homo sapiens, TUR
  IC50: > 0.256 µM
RPMI-6666; Homo sapiens, RPMI-6666
  IC50: 0.0826 µM
NCI-H345; Homo sapiens, NCI-H345
  IC50: > 0.256 µM
CESS; Homo sapiens, CESS
  IC50: 0.0132 µM
NCI-H889; Homo sapiens, NCI-H889
  IC50: 0.0924 µM
SNU-C1; Homo sapiens, SNU-C1
  IC50: > 0.256 µM
NCI-H2141; Homo sapiens, NCI-H2141
  IC50: 0.159 µM
SNU-16; Homo sapiens, SNU-16
  IC50: 0.0205 µM
NB7
  IC50: > 0.256 µM

## CN(C)C(=N)NC(=N)N [METFORMIN]
NCI-H1703; Homo sapiens, NCI-H1703
  IC50: 17300 µM
SW948; Homo sapiens, SW948
  IC50: > 20000 µM
OE19; Homo sapiens, OE19
  IC50: > 20000 µM
MDA-MB-453; Homo sapiens, MDA-MB-453
  IC50: 12900 µM
CAL-54; Homo sapiens, CAL-54
  IC50: 3360 µM
SW1573; Homo sapiens, SW1573
  IC50: > 20000 µM
BEN; Homo sapiens, BEN
  IC50: 15400 µM
MOLT-13
  IC50: 556 µM
HPAF-II; Homo sapiens, HPAF-II
  IC50: 7740 µM
HuCCT-1; Homo sapiens, HuCCT-1
  IC50: > 20000 µM
HCC70; Homo sapiens, HCC70
  IC50: > 20000 µM
HCC1419; Homo sapiens, HCC1419
  IC50: > 20000 µM
C-33-A; Homo sapiens, C-33-A
  IC50: 9400 µM
J82; Homo sapiens, J82
  IC50: 12900 µM
ASPC1; Homo sapiens, ASPC1
  IC50: 5370 µM
KNS-62
  IC50: > 20000 µM
RD; Homo sapiens, RD
  IC50: > 20000 µM
DU-145; Homo sapiens, DU-145
  IC50: 838 µM
LoVo; Homo sapiens, LoVo
  IC50: > 20000 µM
SW 1116
  IC50: > 20000 µM
DMS-273; Homo sapiens, DMS-273
  IC50: 13600 µM
CAL-27; Homo sapiens, CAL-27
  IC50: > 20000 µM
SCC-4; Homo sapiens, SCC-4
  IC50: > 20000 µM
CHL-1; Homo sapiens, CHL-1
  IC50: 19500 µM
NCI-H810; Homo sapiens, NCI-H810
  IC50: > 20000 µM
FTC-133; Homo sapiens, FTC-133
  IC50: > 20000 µM
23132-87; Homo sapiens
  IC50: 11200 µM
NCI-H28; Homo sapiens, NCI-H28
  IC50: 12000 µM
MC-IXC; Homo sapiens, MC-IXC
  IC50: 7890 µM

## CC(=O)O[C@H]1C(=O)[C@@]2(C)[C@H]([C@H](OC(=O)c3ccccc3)[C@]3(O)C[C@H](OC(=O)[C@H](O)[C@@H](NC(=O)c4ccccc4)c4ccccc4)C(C)=C1C3(C)C)[C@]1(OC(C)=O)CO[C@@H]1C[C@@H]2O [PACLITAXEL]
K052; Homo sapiens, K052
  IC50: 0.0325 µM
NCI-H719; Homo sapiens, NCI-H719
  IC50: > 0.102 µM
MOLT-13
  IC50: 0.0164 µM
IM-9; Homo sapiens, IM-9
  IC50: > 0.102 µM
TUR; Homo sapiens, TUR
  IC50: > 0.102 µM
RPMI-6666; Homo sapiens, RPMI-6666
  IC50: 0.0215 µM
NCI-H345; Homo sapiens, NCI-H345
  IC50: > 0.102 µM
CESS; Homo sapiens, CESS
  IC50: 0.00737 µM
NCI-H889; Homo sapiens, NCI-H889
  IC50: 0.0559 µM
SNU-C1; Homo sapiens, SNU-C1
  IC50: > 0.102 µM
NCI-H2141; Homo sapiens, NCI-H2141
  IC50: 0.081 µM
SNU-16; Homo sapiens, SNU-16
  IC50: 0.0101 µM
NB7
  IC50: > 0.102 µM

## BLEOMYCIN
NCI-H1703; nci-h1703
  IC50: 0.0161 µM
K052; k052
  IC50: 482 µM
SW948; sw948
  IC50: 354 µM
OE19; oe19
  IC50: 2.14 µM
MDA-MB-453; mda-mb-453
  IC50: 15.4 µM
CAL-54; cal-54
  IC50: 0.191 µM
SK-MEL-28
  IC50: 1860 µM
NCI-H719; nci-h719
  IC50: 293 µM
SW1573; sw1573
  IC50: 0.137 µM
BEN; ben
  IC50: 46 µM
NCI-H2405
  IC50: 4.28 µM
KP-N-YN
  IC50: 26.3 µM
HPAF-II; hpaf-ii
  IC50: 233 µM
HuCCT-1; hucct1
  IC50: 10.9 µM
D-542MG
  IC50: 60.3 µM
HCC70; hcc70
  IC50: 126 µM
IM-9; im-9
  IC50: 4.13 µM
HCC1419; hcc1419
  IC50: 253 µM
TUR; tur
  IC50: 18.9 µM
C-33-A; c-33-a
  IC50: 0.432 µM
J82; j82
  IC50: 0.774 µM
ASPC1; aspc1
  IC50: 82.5 µM
RD; rd
  IC50: 106 µM
DU-145; du-145
  IC50: 0.823 µM
NCI-H650
  IC50: 0.000587 µM
LoVo; lovo
  IC50: 0.0712 µM
RPMI-6666; rpmi-6666
  IC50: 0.445 µM
NCI-H345; nci-h345
  IC50: 814 µM
DMS-273; dms-273
  IC50: 2.98 µM
CESS; cess
  IC50: 0.000546 µM
DK-MG
  IC50: 85.8 µM
CAL-27; cal-27
  IC50: 8.07 µM
NCI-H889; nci-h889
  IC50: 513 µM
SNU-C1; snu-c1
  IC50: 82 µM
A-375
  IC50: 0.0711 µM
SCC-4; scc-4
  IC50: 2.43 µM
CHL-1; chl-1
  IC50: 0.732 µM
NCI-H810; nci-h810
  IC50: 55.1 µM
NCI-H2141; nci-h2141
  IC50: 36.1 µM
FTC-133; ftc-133
  IC50: 1.29 µM
SNU-16; snu-16
  IC50: 16100 µM
23132-87
  IC50: 0.131 µM
NCI-H28; nci-h28
  IC50: 2.74 µM
MC-IXC; mc-ixc
  IC50: 3 µM
